# Values joined by “and” are separate entries in the source; they are usually repeats but may differ in a detail not shown here. Equal values may be shown once.
# Test system: WM3248 melanoma cells, 486 antibodies
# Test: Reverse phase protein arrays (RPPA)
# Type: cell-based, Human
# From the text: Pellets were snap frozen in liquid nitrogen and shipped to MD Anderson Cancer Center core RPPA facility for RPPA analysis (Table S5). Three biological replicates for each sample were generated.
# Nomenclatures on the RPPA heatmaps: name_of_antibody.species_of_antibody.status_of_antibody. V - antibody validated; C - validation of antibody in progress; Q - antibody nonspecific; E – under evaluation; antibodies raised in M - mouse, G - goat, R - rabbit, or T - rat.
# [1] = Norm_5, replicates 1-3 and Average, relative to Norm_0
compound,measurement,setting,value
"CN(C)c1cccc(Nc2cc(-c3ccccc3)nc(C3CCNCC3)n2)c1 [ARN22089, N1,N1-dimethyl-N3-(6-phenyl-2-(piperidin-4-yl)pyrimidin-4-yl)benzene-1,3-diamine]","ATRX.R.C RPPA signal, normalized",[1],0.868 and 1.119 and 1.361 and 1.116
same,"ATR_pS428.R.C RPPA signal, normalized",[1],1.018 and 1.013 and 1.046 and 1.026
same,"AceCS1.R.V RPPA signal, normalized",[1],1.085 and 0.933 and 1.019
same,"Akt1.R.V RPPA signal, normalized",[1],0.915 and 0.974 and 0.812 and 0.900
same,"Akt1_pS473.R.V RPPA signal, normalized",[1],1.006 and 0.879 and 0.961
same,"Akt2.R.V RPPA signal, normalized",[1],0.917 (2×) and 0.925 and 0.908
same,"Akt2_pS474.R.C RPPA signal, normalized",[1],1.056 and 1.115
same,"Akt.R.V RPPA signal, normalized",[1],0.986 and 0.968 and 1.009
same,"Akt_pS473.R.V RPPA signal, normalized",[1],2.087 and 1.212 and 1.121 and 1.473
same,"Akt_pT308.R.V RPPA signal, normalized",[1],1.212 and 0.937 and 1.110
same,"Ambra1_pS52.R.C RPPA signal, normalized",[1],0.888 and 0.910 and 0.903 and 0.900
same,"Annexin.I.M.V RPPA signal, normalized",[1],0.981 and 1.012 and 1.278
same,"Annexin.VII.M.V RPPA signal, normalized",[1],1.019 and 0.975 and 0.977 and 0.990
same,"Atg3.R.V RPPA signal, normalized",[1],1.081 and 0.975 and 1.056
same,"Atg4B.R.C RPPA signal, normalized",[1],1.096 and 1.370 and 1.167
same,"Atg5.R.C RPPA signal, normalized",[1],1.011 and 1.078 and 1.020
same,"Atg7.R.V RPPA signal, normalized",[1],1.022 and 1.027
same,"Aurora.A.R.C RPPA signal, normalized",[1],0.652 and 0.973 and 0.927 and 0.851
same,"Aurora.ABC_pT288_pT232_pT198.R.C RPPA signal, normalized",[1],0.793 and 0.871 and 0.899 and 0.855
same,"Aurora.B.R.V RPPA signal, normalized",[1],0.896 and 1.084 and 0.923 and 0.968
same,"Axl.R.V RPPA signal, normalized",[1],0.968 and 1.169 and 1.152 and 1.097
same,"B7.H3.R.C RPPA signal, normalized",[1],1.106 and 0.952 and 0.992 and 1.017
same,"B7.H4.R.C RPPA signal, normalized",[1],1.026 and 0.982 and 1.007 and 1.005
same,"B.Raf.R.C RPPA signal, normalized",[1],1.062 and 1.061
same,"B.Raf_pS445.R.V RPPA signal, normalized",[1],1.018 and 1.017 and 1.057 and 1.031
same,"BAP1.M.V RPPA signal, normalized",[1],0.935 and 0.995 and 0.932 and 0.954
same,"BCL2A1.R.V RPPA signal, normalized",[1],1.271 and 0.801 and 1.003
same,"BMK1.Erk5_pT218_Y220.R.V RPPA signal, normalized",[1],0.965 and 0.943 and 0.924
same,"BRCA1.M.C RPPA signal, normalized",[1],0.876 and 0.959 and 0.998 and 0.944
same,"BRD4.R.V RPPA signal, normalized",[1],1.085 and 1.161 and 1.113
same,"Bad_pS112.R.V RPPA signal, normalized",[1],1.029 and 1.014 and 1.062 and 1.035
same,"Bak.R.C RPPA signal, normalized",[1],1.012 and 1.001 and 1.061 and 1.025
same,"Bax.R.V RPPA signal, normalized",[1],1.015 and 1.032 and 0.955 and 1.001
same,"Bcl2.R.C RPPA signal, normalized",[1],0.966 and 1.014 and 0.939 and 0.973
same,"Bcl.xL.R.V RPPA signal, normalized",[1],1.144 and 0.772 and 0.984
same,"Beclin.R.C RPPA signal, normalized",[1],0.940 and 1.010 and 0.868 and 0.939
same,"BiP.GRP78.M.C RPPA signal, normalized",[1],0.904 and 0.981 and 0.932 and 0.939
same,"Bid.R.C RPPA signal, normalized",[1],1.008 and 0.999 and 1.060 and 1.022
same,"Bim.R.V RPPA signal, normalized",[1],0.866 and 0.980 and 0.919
same,"X4E.BP1.R.V RPPA signal, normalized",[1],0.986 and 1.022 and 1.747 and 1.252
same,"X4E.BP1_pS65.R.V RPPA signal, normalized",[1],1.142 and 1.063 and 0.945 and 1.050
same,"X4E.BP1_pT37_T46.R.V RPPA signal, normalized",[1],1.104 and 1.054 (2×)
same,"X14.3.3.zeta.R.V RPPA signal, normalized",[1],0.999 and 1.014
same,"X14.3.3βR.V RPPA signal, normalized",[1],0.972 and 0.950 and 1.017 and 0.980
same,"X14.3.3εM.C RPPA signal, normalized",[1],0.936 and 0.999 and 0.976 and 0.971
same,"X53BP1.R.V RPPA signal, normalized",[1],0.978 and 0.924 and 0.982
same,"b.Actin.R.C RPPA signal, normalized",[1],0.918 and 0.939 and 0.975
same,"b.Catenin.R.V RPPA signal, normalized",[1],0.994 and 0.895 and 0.845
same,"b.Catenin_pT41_S45.R.V RPPA signal, normalized",[1],1.007 and 0.992 and 1.022
same,"c.Abl.R.V RPPA signal, normalized",[1],1.034 and 1.085 and 1.017
same,"c.Abl_pY412.R.C RPPA signal, normalized",[1],0.992 and 0.994 and 1.009
same,"c.IAP2.R.C RPPA signal, normalized",[1],1.048 and 1.023
same,C.Raf.R.C normalized signal,Norm_5 Average,0.955
same,C.Raf_pS338.R.V normalized signal,Norm_5 Average,1.097
same,CA9.R.C normalized signal,Norm_5 Average,0.944
same,CD2.M.C normalized signal,Norm_5 Average,0.959
same,CD4.R.V normalized signal,Norm_5 Average,1.051
same,CD5.M.C normalized signal,Norm_5 Average,0.995
same,CD20.R.C normalized signal,Norm_5 Average,0.920
same,CD26.R.V normalized signal,Norm_5 Average,0.984
same,CD29.M.V normalized signal,Norm_5 Average,0.963
same,CD38.R.C normalized signal,Norm_5 Average,1.035
same,CD44.R.C normalized signal,Norm_5 Average,0.944
same,CD45.M.V normalized signal,Norm_5 Average,0.967
same,CD49b.M.V normalized signal,Norm_5 Average,0.979
same,CD68.M.C normalized signal,Norm_5 Average,0.978
same,CD74.M.V normalized signal,Norm_5 Average,0.927
same,CD134.R.V normalized signal,Norm_5 Average,0.971
same,CD171.M.V normalized signal,Norm_5 Average,0.783
same,CDK9.R.V normalized signal,Norm_5 Average,0.955
same,CDKN2A.R.C normalized signal,Norm_5 Average,0.941
same,CDT1.R.V normalized signal,Norm_5 Average,0.908
same,CENP.A.R.V normalized signal,Norm_5 Average,0.910
same,CHD1L.R.V normalized signal,Norm_5 Average,1.009
same,COG3.R.V normalized signal,Norm_5 Average,1.046
same,CRABP1.R.C normalized signal,Norm_5 Average,0.948
same,CRABP2.R.V normalized signal,Norm_5 Average,0.874
same,CSK.R.C normalized signal,Norm_5 Average,0.850
same,Calnexin.R.V normalized signal,Norm_5 Average,0.963
same,Caspase.3.cleaved.R.C normalized signal,Norm_5 Average,1.016
same,Caspase.7.cleaved..R.C normalized signal,Norm_5 Average,1.054
same,Caspase.8.M.Q normalized signal,Norm_5 Average,0.985
